Results: patent US20050101621A1, “Method for rapid detoxification of addiction” (priority 2003, published 2005)

Assay: general anesthesia assisted opiate detoxification with high-rate opiod antagonist infusion
Type: in vivo, patient
From the text: Treatment begins by providing the patient with Valium, Xanax and Trazedone, which are taken orally. The patient's vitals are then monitored using such equipment as an electrocardiogram, pulse oxymeter, blood pressure monitor, ETCO2 monitor, oxygen sensor, and tidol volume monitor. An intravenous (IV) line is then set-up and general anesthesia is induced, preferably using Valium, Propofol and Mivacron. These anesthetizing agents are suited to facilitate endotracheal (ET) intubation.
Once the anesthesia takes effect, an endotracheal tube is appropriately placed through the patient's oral cavity and the patient retrieves to spontaneous respirations over the next few minutes. A Precedex infusion is then started, preferably at […], to achieve cardiovascular stability. Next antiemetics and antiperistaltic agents are then administered. In accordance with the preferred method the antiemetics and antiperistaltic agents comprise dexamethazone somatostatin and robinul; other similar agents can be employed. An antihistamine agent, e.g., Benedryl, is then given.
Next, a Naloxone (or its generic counterpart Narcane) infusion is started at rate of 0.6 mg/kg/hr for one hour, i.e., 0.6 mg/hr per unit of the patient's metric weight. In accordance with the present invention, Naloxone is administered at rate greater than 1.5 mg/hr. […]

In the case of C=CCN1CC[C@]23c4c5ccc(O)c4O[C@H]2C(=O)CC[C@@]3(O)[C@H]1C5 [Naloxone], the “medical risk to the patient of high-rate Naloxone administration” value (infusion 0.6 mg/kg/hr for one hour (30 mg/hr for 50 kg, approximately 50 mg/hr for 75 kg), patient anesthetized) is reported as “does not expose a patient to a severe medical risk” and the “risk to the patient of Naloxone administration” value (rate of 1.4 mg/kg/hr) is reported as “without exposing the patient to unnecessary risks”.
